How the values were obtained:
[1] = tested on: Blatta orientalis; assay: Biological activity on Blatta orientalis (Ortoptera); type: in vivo; conditions: 0.1 g/m^2, 48 hours after start of treatment, read-out: percentage of reduction of the infestation (percentage mortality), Blatta
Description: Biological activity on Blatta orientalis (Ortoptera)
The bottom and side walls of glass beakers were treated uniformly with an acetonic solution of the products under examination. After evaporation of the solvent in each beaker, into the same were then introduced ten, 80-100 days old neanides, whereafter they were closed with a lid of metal netting. After 24 hours from the beginning of the treatment, the insects were transferred into untreated glass beakers, and suitably nourished. The percentage mortality (untreated insects=0) was determined 48 hours after the start of the treatment.

[2] = tested on: Tetranychus urticae; assay: Biological activity on Tetranychus urticae (Acari) adults; type: in vivo; conditions: 0.01 permill.; 24 hours after treatment
Description: Biological Activity on Tetranychus urticae (Acari) adults
Small bean leaf discs were infected with adult acari and were then sprinkled with an aqueous dispersion of the products under examination. The percentage of mortality was determined 24 hours after the treatment (untreated discs, mortality=0).

[3] = tested on: Macrosiphum euphorbiae; assay: Biological activity on Macrosiphum euphorbiae (aphides); type: in vivo; design: tested at 0.01 permill; conditions: 0.01 permill.; 24 hours after treatment
Description: Biological activity on Macrosiphum euphorbiae (aphides)
Small potato plants grown in pots were infested with adult female aphides and, after several hours, were sprinkled with an aqueous dispersion of the products under examination.
The percentage death rate was determined 24 hours after treatment (untreated plants=0).

[4] = tested on: Culex pipiens larvae; assay: Biological activity on Culex pipiens (diptera) larvae; type: in vivo; conditions: 24 hours after treatment, read-out: percentage of reduction of the infestation (percentage death rate), Culex larvae
Description: Biological activity on Culex pipiens (diptera) larvae
Into glasses containing an aqueous dispersion of the products under examination, were introduced third and fourth age mosquito larvae. The percentage death rate of the larvae (glasses containing pure water=0) was determined 24 hours after treatment.

[5] = Toxicity by os on rats; conditions: rat, in vivo, po
[6] = tested on: Spodoptera littoralis; assay: Biological activity on Spodoptera littoralis (Lepidoptera), 5-days old larvae; type: in vivo; conditions: 0.1 permill.; 48 hours after treatment
Description: Biological activity on Spodoptera littoralis (Lepidoptera)
Cut tobacco leaves were sprinkled with an aqueous dispersion of the products under examination. After drying, the leaves were infested with 5-days old larvae. The percentage mortality of the larvae was determined 48 hours after treatment (untreated leaves, mortality=0).

[7] = tested on: Leptinatarsa decomlineata; assay: Biological activity on Leptinatarsa decomlineata (Coledptera), 4-day old larvae; type: in vivo; conditions: 0.1 permill.; 48 hours after treatment
Description: Biological activity on Leptinatarsa decomlineata (Coledptera)
Small, pot-grown potato-plants were infested with 4-day old larvae, and then were sprinkled with an aqueous dispersion of the products under examination. The percentage death rate (untreated plants=0) was determined 48 hours after treatment.

[8] = tested on: Meloidogyne incognita; assay: Biological activity on Meloidogyne incognita (Nematoda); type: in vivo; conditions: 20 ppm; 21 days after transplanting
Description: Biological activity on Meloidogyne incognita (Nematoda)
Aliquot parts of a 1:1 mixture of field soil and sand, infested by Nematoda larvae and eggs, were treated by uniformly mixing same with an aqueous dispersion of the products under examination. The soil was then distributed into plastic pots, and after 5 days into each pot there were transplanted 5 tomato plants about 20 cm high. The survey of the results was carried out 21 days after the transplanting, by observing the roots of the plants extracted from the soil in order to ascertain the degree of infestation by counting the galls that have formed on them. The nematocide activity was expressed as a percentage of reduction of the infestation with respect to the witness plant (small plants transplanted into untreated soil, activity=0).

[9] = tested on: Culex pipiens adults; assay: Biological activity on Culex pipiens (Diptera): adults; type: in vivo; conditions: 0.2 g/m^2, 24 hours after beginning of treatment, read-out: percentage of reduction of the infestation (mortality percentage), Culex ad.
Description: Biological activity on Culex pipiens (Diptera): adults
Whatman n°1 paper rectangles were treated uniformly with an acetonic solution of the products under examination. After evaporation of the solvent, each treated paper rectangle was used to line the inside wall of a perspex cylinder (model OMS). The paper-lined perspex cylinder was then closed with a net after having introduced into it 2-3 days old adult females. After one hour from the start of the contact, the insects were transferred into a similar cylinder likewise lined with untreated paper, and were fed with a sugary solution.
The mortality percentage (untreated insects=0) was determined 24 hours after the beginning of the treatment.

[10] = tested on: Pieris brassicae; assay: Biological activity on Pieris brassicae (Lepitoptera), 5-day old larvae; type: in vivo; conditions: 0.1 permill.; 48 hours after treatment
Description: Biological activity on Pieris brassicae (Lepitoptera)
Cut cauliflower leaves were sprinkled with an aqueous dispersion of the products under examination. After drying, the leaves were infested with 5-day old larvae. The percentage death rate of the larvae (untreated leaves=0) was determined 48 hours after treatment.

[11] = tested on: Musca domestica; assay: Biological activity on Musca domestica (Diptera), topical application; type: in vivo; conditions: 0.5 γ/ins, 24 hours after treatment
Description: Biological activity on Musca domestica (Diptera)
4-days old adults were treated, by topical application by microsyringe, with an acetonic solution of the products under examination.
The mortality percentage (insects treated with acetone only=0) was determined 24 hours after the treatment.

[12] = tested on: insects, acari and nematoda; assay: Pesticidal activity against insects, acari and nematoda (general statements); type: in vivo
Description: The pesticidal activity, verified by the methods described below in Example 12, is recorded below in the following Table 3 in comparison with that of "Pyrazothion".

## CCOP(=S)(OCC)Oc1cc(Cl)nn1C(C)C [Compound 5]
[1]
  mortality at 0.1 g/m2: 100%
[2]
  percentage of reduction of the infestation (percentage of mortality), Tetran U.: 100%
[3]
  percentage of reduction of the infestation (percentage death rate), Macrosiph. E.: 100%
[4]
  mortality at 0.2 ppm: 100%
[5]
  LD50: 22 mg/kg
[6]
  percentage of reduction of the infestation (percentage mortality of larvae), Spodoptera L: 60%
[7]
  percentage of reduction of the infestation (percentage death rate), Leptinot D.: 100%
[8]
  percentage of reduction of the infestation, Meloidog. I.: 90%
[9]
  mortality at 0.2 g/m2: 100%
[10]
  percentage of reduction of the infestation (percentage death rate of larvae), Pieris B: 100%
[11]
  percentage of reduction of the infestation (mortality percentage), Musca d.: 100%

## CCOP(=S)(OC)Oc1cc(Cl)nn1-c1ccccc1 (stereo not shown) [Compound 37]
[1]
  mortality at 0.1 g/m2: 100%
[2]
  percentage of reduction of the infestation (percentage of mortality), Tetran U.: 0%
[3]
  percentage of reduction of the infestation (percentage death rate), Macrosiph. E.: 48%
[4]
  mortality at 0.2 ppm: 100%
[5]
  LD50: 320 mg/kg
[6]
  percentage of reduction of the infestation (percentage mortality of larvae), Spodoptera L: 100%
[7]
  percentage of reduction of the infestation (percentage death rate), Leptinot D.: 100%
[8]
  percentage of reduction of the infestation, Meloidog. I.: 47%
[9]
  mortality at 0.2 g/m2: 100%
[10]
  percentage of reduction of the infestation (percentage death rate of larvae), Pieris B: 100%
[11]
  percentage of reduction of the infestation (mortality percentage), Musca d.: 100%

## CCOP(=S)(OCC)Oc1cc(C)[nH]n1 [Pyrazothion, diethyl-thiophosphoric ester of 3(5)-methyl-5(3)-hydroxypyrazole, reference compound]
[1]
  mortality at 0.1 g/m2: 20%
[2]
  percentage of reduction of the infestation (percentage of mortality), Tetran U.: 90%
[3]
  percentage of reduction of the infestation (percentage death rate), Macrosiph. E.: 60%
[4]
  mortality at 0.2 ppm: 0%
[5]
  LD50: 36 mg/kg
[6]
  percentage of reduction of the infestation (percentage mortality of larvae), Spodoptera L: 0%
[7]
  percentage of reduction of the infestation (percentage death rate), Leptinot D.: 0%
[8]
  percentage of reduction of the infestation, Meloidog. I.: 0%
[9]
  mortality at 0.2 g/m2: 0%
[10]
  percentage of reduction of the infestation (percentage death rate of larvae), Pieris B: 70%
[11]
  percentage of reduction of the infestation (mortality percentage), Musca d.: 0%
[12]; Spodoptera, Culex, Musca, Leptinotarsa, Meloidogine incognita
  activity against Spodoptera, Culex, Musca, Leptinotarsa, Meloidogine incognita: ineffective
[12]; in vivo
  activity against insects, acari and nematoda: does not shown activity

## CCOP(=S)(OCC)Oc1cc(Cl)nn1C [Compound 13]
[1]
  mortality at 0.1 g/m2: 100%
[2]
  percentage of reduction of the infestation (percentage of mortality), Tetran U.: 100%
[3]
  percentage of reduction of the infestation (percentage death rate), Macrosiph. E.: 99%
[4]
  mortality at 0.2 ppm: 100%
[5]
  LD50: 25 mg/kg
[6]
  percentage of reduction of the infestation (percentage mortality of larvae), Spodoptera L: 100%
[7]
  percentage of reduction of the infestation (percentage death rate), Leptinot D.: 100%
[8]
  percentage of reduction of the infestation, Meloidog. I.: 100%
[9]
  mortality at 0.2 g/m2: 100%
[10]
  percentage of reduction of the infestation (percentage death rate of larvae), Pieris B: 100%
[11]
  percentage of reduction of the infestation (mortality percentage), Musca d.: 100%

## CCOP(=S)(OCC)Oc1cc(C=C(Cl)Cl)nn1C [Compound 6]
[1]
  mortality at 0.1 g/m2: 100%
[2]
  percentage of reduction of the infestation (percentage of mortality), Tetran U.: 100%
[3]
  percentage of reduction of the infestation (percentage death rate), Macrosiph. E.: 100%
[4]
  mortality at 0.2 ppm: 100%
[5]
  LD50: 175 mg/kg
[6]
  percentage of reduction of the infestation (percentage mortality of larvae), Spodoptera L: 100%
[7]
  percentage of reduction of the infestation (percentage death rate), Leptinot D.: 100%
[8]
  percentage of reduction of the infestation, Meloidog. I.: 95%
[9]
  mortality at 0.2 g/m2: 76%
[10]
  percentage of reduction of the infestation (percentage death rate of larvae), Pieris B: 100%
[11]
  percentage of reduction of the infestation (mortality percentage), Musca d.: 100%

## COP(=S)(OC)Oc1cc(Cl)nn1-c1ccccc1 [Compound 1, O,O-dimethyl-0-(1-phenyl-3-chloropyrazol-5-yl) thiophosphate]
[1]
  mortality at 0.1 g/m2: 100%
[2]
  percentage of reduction of the infestation (percentage of mortality), Tetran U.: 60%
[3]
  percentage of reduction of the infestation (percentage death rate), Macrosiph. E.: 90%
[4]
  mortality at 0.2 ppm: 100%
[5]
  LD50: 400 mg/kg
[6]
  percentage of reduction of the infestation (percentage mortality of larvae), Spodoptera L: 100%
[7]
  percentage of reduction of the infestation (percentage death rate), Leptinot D.: 100%
[8]
  percentage of reduction of the infestation, Meloidog. I.: 80%
[9]
  mortality at 0.2 g/m2: 100%
[10]
  percentage of reduction of the infestation (percentage death rate of larvae), Pieris B: 100%
[11]
  percentage of reduction of the infestation (mortality percentage), Musca d.: 100%

## CCOP(=S)(OC)Oc1cc(Cl)nn1C (stereo not shown) [Compound 23]
[1]
  mortality at 0.1 g/m2: 100%
[2]
  percentage of reduction of the infestation (percentage of mortality), Tetran U.: 100%
[3]
  percentage of reduction of the infestation (percentage death rate), Macrosiph. E.: 92%
[4]
  mortality at 0.2 ppm: 100%
[5]
  LD50: 487 mg/kg
[6]
  percentage of reduction of the infestation (percentage mortality of larvae), Spodoptera L: 100%
[7]
  percentage of reduction of the infestation (percentage death rate), Leptinot D.: 100%
[8]
  percentage of reduction of the infestation, Meloidog. I.: 100%
[9]
  mortality at 0.2 g/m2: 100%
[10]
  percentage of reduction of the infestation (percentage death rate of larvae), Pieris B: 100%
[11]
  percentage of reduction of the infestation (mortality percentage), Musca d.: 100%
